Active and inactive are the calls of the source. The rule behind the calls is not given here.
Experiments:
[1] = Solubility of the compound in saline/DMSO (95/5% V/V) at pH 7.4; type: physicochemical
[2] = Solubility of the compound in saline/PEG400 (95/5% V/V) at pH 7.4; type: physicochemical
[3] = Solubility of the compound in saline/PEG400 (80/20% V/V) at pH 7.4; type: physicochemical
[4] = Stability of the compound in absence of light of 100 lux measured of 3 days by HPLC analysis; type: physicochemical; conditions: 72 h; time 3 day
HepG2 [5] = test: Antitumor activity against human HepG2 cells xenografted in BALB/c nude mouse assessed as tumor growth inhibition at 45 mg/kg, po qd administered daily for 21 consecutive days and measured every 3 days upto 21 days relative to control; type: functional; conditions: HepG2, 504 h, time <= 21 day, read-out: TGI
[6] = Toxicity in BALB/c mouse xenografted with human HepG2 cells assessed as change in body weight at 15 to 45 mg/kg, po qd at 45 mg/kg, po treated daily for 21 days measured every 3 days for 21 days; type: organism-based; conditions: in vivo, 504 h, dose 15-45 mg/kg, time 21 day
[7] = Toxicity in BALB/c mouse xenografted with human HepG2 cells assessed as adverse effect at 15 to 45 mg/kg, po qd at 45 mg/kg, po treated daily for 21 days measured every 3 days for 21 days; type: organism-based; conditions: in vivo, 504 h, dose 15-45 mg/kg, time 21 day
HepG2 [8] = test: Antitumor activity against human HepG2 cells xenografted in BALB/c nude mouse assessed as tumor growth inhibition at 9 mg/kg, iv qd administered daily for 21 consecutive days and measured every 3 days upto 21 days relative to control; type: functional; conditions: HepG2, 504 h, time <= 21 day, read-out: TGI
[9] = Drug distribution in ICR mouse duodenum at 100 mg/kg, ip measured upto 0.5 hrs by UPLC-MS/MS analysis; type: ADME, organism-based; conditions: in vivo
[10] = Drug distribution in ICR mouse liver at 100 mg/kg, ip measured upto 0.5 hrs by UPLC-MS/MS analysis; type: ADME, organism-based; conditions: in vivo
[11] = Drug distribution in ICR mouse kidney at 100 mg/kg, ip measured upto 0.5 hrs by UPLC-MS/MS analysis; type: ADME, organism-based; conditions: in vivo
[12] = Drug elimination in ICR mouse spleen at 100 mg/kg, ip measured for 1.5 hrs by UPLC-MS/MS analysis; type: ADME, organism-based; conditions: in vivo
[13] = Acute toxicity in ip dosed ICR mouse assessed as maximum tolerated dose; type: organism-based; conditions: in vivo
[14] = Hepatotoxicity in ICR mouse assessed as change in blood ALT level at 45 mg/kg, po by biochemical assay; type: toxicity, organism-based; conditions: in vivo
[15] = Hepatotoxicity in ICR mouse assessed as change in blood AST level at 45 mg/kg, po by biochemical assay; type: toxicity, organism-based; conditions: in vivo
[16] = Renal toxicity in ICR mouse assessed as change in blood UREA level at 45 mg/kg, po by biochemical assay; type: organism-based; conditions: in vivo
[17] = Renal toxicity in ICR mouse assessed as change in blood BUN level at 45 mg/kg, po by biochemical assay; type: organism-based; conditions: in vivo
[18] = Renal toxicity in ICR mouse assessed as change in blood UA level at 45 mg/kg, po by biochemical assay; type: organism-based; conditions: in vivo
[19] = Toxicity in ICR mouse assessed as effect on spleen at 45 mg/kg, po measured after 2 weeks by H and E staining based analysis; type: organism-based; conditions: in vivo, 336 h
HepG2 [20] = test: Antitumor activity against human HepG2 cells xenografted in BALB/c nude mouse assessed as reduction in tumor weight at 1 to 9 mg/kg, iv qd administered daily for 21 consecutive days measured on day 21; type: functional, organism-based; conditions: dose 1-9 mg/kg, time 21.0 day

C[C@H]1CCC/C=C/[C@@H]2C[C@H](OC(=O)OCc3cccnc3)C[C@H]2[C@H](O)/C=C/C(=O)O1
solubility [1]: < 1 mg/mL
solubility [2]: < 1 mg/mL
solubility [3]: < 1 mg/mL
Stability [4]: Stable
inhibition in vivo at 45 mg/kg (HepG2 [5]): 61%
Activity [6]: Non-Toxic
Activity [7]: Non-Toxic
inhibition in vivo at 9 mg/kg (HepG2 [8]): 48.3%
Drug uptake [9]: Active
Drug uptake [10]: Active
Drug uptake [11]: Active
Drug excretion [12]: Active
MTD [13]: > 100 mg/kg
Activity [14]: Non-Toxic
Activity [15]: Non-Toxic
Activity [16]: Non-Toxic
Activity [17]: Non-Toxic
Activity [18]: Non-Toxic
Activity [19]: Non-Toxic
Activity (HepG2 [20]): Active

Source: ChEMBL document CHEMBL5113532, “Design and Characterization of a Natural Arf-GEFs Inhibitor Prodrug CHNQD-01255 with Potent Anti-Hepatocellular Carcinoma Efficacy In Vivo” (J Med Chem, 2022)
